Results reported in publication PMC11277489, “Novel Piperazine Derivatives of Vindoline as Anticancer Agents” (International Journal of Molecular Sciences, 2024).

What follows are molecules tested on NCI-H322M (assay: NCI60 one-dose screen (10 μM), Non-small Cell Lung Cancer). Conditions: Homo sapiens, 10 μM, Non-small Cell Lung Cancer, read-out: Growth percent rate.
Assay type: cell-based

| Compound | activity at 10 µM [%] |
| --- | --- |
| CC[C@]12C=CCN3CC[C@@]4(c5ccc(OC)cc5N(C)[C@H]4[C@@](O)(C(=O)OC)[C@@H]1OC(=O)CCCN1CCN(C(=O)c4ccco4)CC1)[C@@H]32 [Compound 26] | 108 |

Each molecule was assayed on HCT-116 (assay: NCI60 one-dose screen (10 μM), Colon Cancer). Conditions: Homo sapiens; 10 μM; HCT-116, Colon Cancer; read-out: Growth percent rate.
Assay type: cell-based

| Compound | activity at 10 µM [%] |
| --- | --- |
| CC[C@]12C=CCN3CC[C@@]4(c5ccc(OC)cc5N(C)[C@H]4[C@@](O)(C(=O)OC)[C@@H]1OC(=O)CCCN1CCN(C(=O)c4ccco4)CC1)[C@@H]32 [Compound 26] | 104 |

Each molecule was assayed on SW-620 (assay: NCI60 one-dose screen (10 μM), Colon Cancer). Conditions: Homo sapiens; 10 μM; SW-620, Colon Cancer; read-out: Growth percent rate.
Assay type: cell-based

| Compound | activity at 10 µM [%] |
| --- | --- |
| CC[C@]12C=CCN3CC[C@@]4(c5ccc(OC)cc5N(C)[C@H]4[C@@](O)(C(=O)OC)[C@@H]1OC(=O)CCCN1CCN(C(=O)c4ccco4)CC1)[C@@H]32 [Compound 26] | 112 |

What follows are molecules tested on HS 578T (assay: NCI60 one-dose screen (10 μM), Breast Cancer). Conditions: Homo sapiens; 10 μM; HS 578T, Breast Cancer; read-out: Growth percent rate.
Assay type: cell-based

| Compound | activity at 10 µM [%] |
| --- | --- |
| CC[C@]12C=CCN3CC[C@@]4(c5ccc(OC)cc5N(C)[C@H]4[C@@](O)(C(=O)OC)[C@@H]1OC(=O)CCCN1CCN(C(=O)c4ccco4)CC1)[C@@H]32 [Compound 26] | 96.1 |

Each molecule was assayed on SF-295 (assay: NCI60 one-dose screen (10 μM), CNS Cancer). Conditions: Homo sapiens; 10 μM; SF-295, CNS Cancer; read-out: Growth percent rate.
Assay type: cell-based

| Compound | activity at 10 µM [%] |
| --- | --- |
| CC[C@]12C=CCN3CC[C@@]4(c5ccc(OC)cc5N(C)[C@H]4[C@@](O)(C(=O)OC)[C@@H]1OC(=O)CCCN1CCN(C(=O)c4ccco4)CC1)[C@@H]32 [Compound 26] | 89.5 |

The molecules below were run on SF-539 (assay: NCI60 one-dose screen (10 μM), CNS Cancer). Conditions: Homo sapiens; 10 μM; SF-539, CNS Cancer; read-out: Growth percent rate.
Assay type: cell-based, human

| Compound | activity at 10 µM [%] |
| --- | --- |
| CC[C@]12C=CCN3CC[C@@]4(c5ccc(OC)cc5N(C)[C@H]4[C@@](O)(C(=O)OC)[C@@H]1OC(=O)CCCN1CCN(C(=O)c4ccco4)CC1)[C@@H]32 [Compound 26] | 101 |

The molecules below were run on KM12 (assay: NCI60 one-dose screen (10 μM), Colon Cancer). Conditions: Homo sapiens; 10 μM; KM12, Colon Cancer; read-out: Growth percent rate.
Assay type: cell-based, human

| Compound | activity at 10 µM [%] |
| --- | --- |
| CC[C@]12C=CCN3CC[C@@]4(c5ccc(OC)cc5N(C)[C@H]4[C@@](O)(C(=O)OC)[C@@H]1OC(=O)CCCN1CCN(C(=O)c4ccco4)CC1)[C@@H]32 [Compound 26] | 108 |

Each molecule was assayed on COLO 205 (assay: NCI60 one-dose screen (10 μM), Colon Cancer). Conditions: Homo sapiens; 10 μM; COLO 205, Colon Cancer; read-out: Growth percent rate.
Assay type: cell-based, human

| Compound | activity at 10 µM [%] |
| --- | --- |
| CC[C@]12C=CCN3CC[C@@]4(c5ccc(OC)cc5N(C)[C@H]4[C@@](O)(C(=O)OC)[C@@H]1OC(=O)CCCN1CCN(C(=O)c4ccco4)CC1)[C@@H]32 [Compound 26] | 99.7 |

What follows are molecules tested on CAKI-1 (assay: NCI60 one-dose screen (10 μM), Renal Cancer). Conditions: Homo sapiens; 10 μM; CAKI-1, Renal Cancer; read-out: Growth percent rate.
Assay type: cell-based

| Compound | activity at 10 µM [%] |
| --- | --- |
| CC[C@]12C=CCN3CC[C@@]4(c5ccc(OC)cc5N(C)[C@H]4[C@@](O)(C(=O)OC)[C@@H]1OC(=O)CCCN1CCN(C(=O)c4ccco4)CC1)[C@@H]32 [Compound 26] | 79.8 |

The molecules below were run on SNB-75 (assay: NCI60 one-dose screen (10 μM), CNS Cancer). Conditions: Homo sapiens; 10 μM; SNB-75, CNS Cancer; read-out: Growth percent rate.
Assay type: cell-based, human

| Compound | activity at 10 µM [%] |
| --- | --- |
| CC[C@]12C=CCN3CC[C@@]4(c5ccc(OC)cc5N(C)[C@H]4[C@@](O)(C(=O)OC)[C@@H]1OC(=O)CCCN1CCN(C(=O)c4ccco4)CC1)[C@@H]32 [Compound 26] | 68.3 |

Each molecule was assayed on SN12C (assay: NCI60 one-dose screen (10 μM), Renal Cancer). Conditions: Homo sapiens, 10 μM, Renal Cancer, read-out: Growth percent rate.
Assay type: cell-based

| Compound | activity at 10 µM [%] |
| --- | --- |
| CC[C@]12C=CCN3CC[C@@]4(c5ccc(OC)cc5N(C)[C@H]4[C@@](O)(C(=O)OC)[C@@H]1OC(=O)CCCN1CCN(C(=O)c4ccco4)CC1)[C@@H]32 [Compound 26] | 103 |

These molecules were tested on LOX IMVI (assay: NCI60 one-dose screen (10 μM), Melanoma). Conditions: Homo sapiens; 10 μM; LOX IMVI, Melanoma; read-out: Growth percent rate.
Assay type: cell-based, human

| Compound | activity at 10 µM [%] |
| --- | --- |
| CC[C@]12C=CCN3CC[C@@]4(c5ccc(OC)cc5N(C)[C@H]4[C@@](O)(C(=O)OC)[C@@H]1OC(=O)CCCN1CCN(C(=O)c4ccco4)CC1)[C@@H]32 [Compound 26] | 96.6 |

The molecules below were run on OVCAR-3 (assay: NCI60 one-dose screen (10 μM), Ovarian Cancer). Conditions: Homo sapiens; 10 μM; OVCAR-3, Ovarian Cancer; read-out: Growth percent rate.
Assay type: cell-based

| Compound | activity at 10 µM [%] |
| --- | --- |
| CC[C@]12C=CCN3CC[C@@]4(c5ccc(OC)cc5N(C)[C@H]4[C@@](O)(C(=O)OC)[C@@H]1OC(=O)CCCN1CCN(C(=O)c4ccco4)CC1)[C@@H]32 [Compound 26] | 121 |

What follows are molecules tested on IGROV1 (assay: NCI60 one-dose screen (10 μM), Ovarian Cancer). Conditions: Homo sapiens, IGROV-1; 10 μM; IGROV1, Ovarian Cancer; read-out: Growth percent rate.
Assay type: cell-based

| Compound | activity at 10 µM [%] |
| --- | --- |
| CC[C@]12C=CCN3CC[C@@]4(c5ccc(OC)cc5N(C)[C@H]4[C@@](O)(C(=O)OC)[C@@H]1OC(=O)CCCN1CCN(C(=O)c4ccco4)CC1)[C@@H]32 [Compound 26] | 109 |

The molecules below were run on UACC-257 (assay: NCI60 one-dose screen (10 μM), Melanoma). Conditions: Homo sapiens; 10 μM; UACC-257, Melanoma; read-out: Growth percent rate.
Assay type: cell-based

| Compound | activity at 10 µM [%] |
| --- | --- |
| CC[C@]12C=CCN3CC[C@@]4(c5ccc(OC)cc5N(C)[C@H]4[C@@](O)(C(=O)OC)[C@@H]1OC(=O)CCCN1CCN(C(=O)c4ccco4)CC1)[C@@H]32 [Compound 26] | 101 |

What follows are molecules tested on NCI-H522 (assay: NCI60 one-dose screen (10 μM), Non-small Cell Lung Cancer). Conditions: Homo sapiens; 10 μM; NCI-H522, Non-small Cell Lung Cancer; read-out: Growth percent rate.
Assay type: cell-based

| Compound | activity at 10 µM [%] |
| --- | --- |
| CC[C@]12C=CCN3CC[C@@]4(c5ccc(OC)cc5N(C)[C@H]4[C@@](O)(C(=O)OC)[C@@H]1OC(=O)CCCN1CCN(C(=O)c4ccco4)CC1)[C@@H]32 [Compound 26] | 91.6 |

What follows are molecules tested on SF-268 (assay: NCI60 one-dose screen (10 μM), CNS Cancer). Conditions: Homo sapiens; 10 μM; SF-268, CNS Cancer; read-out: Growth percent rate.
Assay type: cell-based

| Compound | activity at 10 µM [%] |
| --- | --- |
| CC[C@]12C=CCN3CC[C@@]4(c5ccc(OC)cc5N(C)[C@H]4[C@@](O)(C(=O)OC)[C@@H]1OC(=O)CCCN1CCN(C(=O)c4ccco4)CC1)[C@@H]32 [Compound 26] | 97.3 |

These molecules were tested on TK-10 (assay: NCI60 one-dose screen (10 μM), Renal Cancer). Conditions: Homo sapiens; 10 μM; TK-10, Renal Cancer; read-out: Growth percent rate.
Assay type: cell-based

| Compound | activity at 10 µM [%] |
| --- | --- |
| CC[C@]12C=CCN3CC[C@@]4(c5ccc(OC)cc5N(C)[C@H]4[C@@](O)(C(=O)OC)[C@@H]1OC(=O)CCCN1CCN(C(=O)c4ccco4)CC1)[C@@H]32 [Compound 26] | 104 |

What follows are molecules tested on CCRF-CEM (assay: NCI60 one-dose screen (10 μM), Leukemia). Conditions: Homo sapiens, 10 μM, Leukemia, read-out: Growth percent rate.
Assay type: cell-based

| Compound | activity at 10 µM [%] |
| --- | --- |
| CC[C@]12C=CCN3CC[C@@]4(c5ccc(OC)cc5N(C)[C@H]4[C@@](O)(C(=O)OC)[C@@H]1OC(=O)CCCN1CCN(C(=O)c4ccco4)CC1)[C@@H]32 [Compound 26] | 103 |

The molecules below were run on MDA-MB-435 (assay: NCI60 one-dose screen (10 μM), Melanoma). Conditions: Homo sapiens; 10 μM; MDA-MB-435, Melanoma; read-out: Growth percent rate.
Assay type: cell-based

| Compound | activity at 10 µM [%] |
| --- | --- |
| CC[C@]12C=CCN3CC[C@@]4(c5ccc(OC)cc5N(C)[C@H]4[C@@](O)(C(=O)OC)[C@@H]1OC(=O)CCCN1CCN(C(=O)c4ccco4)CC1)[C@@H]32 [Compound 26] | 104 |

These molecules were tested on A549/ATCC (assay: NCI60 one-dose screen (10 μM), Non-small Cell Lung Cancer). Conditions: Homo sapiens; 10 μM; A549/ATCC, Non-small Cell Lung Cancer; read-out: Growth percent rate.
Assay type: cell-based

| Compound | activity at 10 µM [%] |
| --- | --- |
| CC[C@]12C=CCN3CC[C@@]4(c5ccc(OC)cc5N(C)[C@H]4[C@@](O)(C(=O)OC)[C@@H]1OC(=O)CCCN1CCN(C(=O)c4ccco4)CC1)[C@@H]32 [Compound 26] | 92.7 |
